Among the data in patent US20240018102A1, “COMPOUNDS AND COMPOSITIONS FOR TREATING CONDITIONS ASSOCIATED WITH LPA RECEPTOR ACTIVITY” (Lhotse Bio, Inc., priority 2020, published 2024) are IC50 values, retold here.

In general, IC50 refers to the midpoint of a concentration-inhibition curve.

For this assay, the target named is T1, human LPA1 (Homo sapiens, UniProt Q92633).
T1 construct: expressed in transfected cells; host or cells: CHO-K1
Kind of assay: In vitro LPA1 calcium flux antagonist assay, Bioduro protocol. It is filed as cell-based. As to conditions: CHO-K1 cells overexpressing human LPA1 and G15a; LPA challenge at EC80; calcium mobilization on FLIPR Tetra; read-out: IC50 (nM) in Assay B2. The method, then:
In Vitro LPA1 Calcium Flux Antagonist Assay Bioduro Protocol
CHO-K1 cells overexpressing human LPA1 and G15a were seeded at a total volume of 20 uL (15000 cells/well) into Matrigel pre-coated 384-well plates (coming -3764) and incubated at 37° C. After overnight incubation, the cells were serum starved for 4 h. Assays were performed in dye loading buffer containing 1× Fluo-8 AM (AAT Bioquest, 21080) and 2.5 mM probenecid (Thermo Fisher, 36400) in HBSS/20 mM Hepes. After cell starvation, the medium was replaced with 20 uL of dye loading buffer and incubated at 37° C. for 30 min. Then 5 uL of 5× compound titrated in dye loading buffer was added to the cells and incubated for 30 min followed by LPA challenge at EC80. Calcium mobilization was measured on a FLIPR Tetra (MDS). For LPA EC80 determination, starved cells were incubated with 20 uL of dye loading buffer for 1 h, then 5 uL of 5×LPA titrated in dye loading buffer was added to the cells. Calcium signals induced by LPA was monitors on a FLIPR.
Percentage inhibition is calculated using the following formula:
% Inhibition=100%×(1−(mean RFU of test sample−mean RFU of DMSO)/(mean RFU of LPA control−mean RFU of DMSO)).
(In general: A change in cytosolic calcium serves as a functional read-out for many receptors and channels.)

The structures appear in SMILES notation.

T1 sequence (Q92633 whole entry): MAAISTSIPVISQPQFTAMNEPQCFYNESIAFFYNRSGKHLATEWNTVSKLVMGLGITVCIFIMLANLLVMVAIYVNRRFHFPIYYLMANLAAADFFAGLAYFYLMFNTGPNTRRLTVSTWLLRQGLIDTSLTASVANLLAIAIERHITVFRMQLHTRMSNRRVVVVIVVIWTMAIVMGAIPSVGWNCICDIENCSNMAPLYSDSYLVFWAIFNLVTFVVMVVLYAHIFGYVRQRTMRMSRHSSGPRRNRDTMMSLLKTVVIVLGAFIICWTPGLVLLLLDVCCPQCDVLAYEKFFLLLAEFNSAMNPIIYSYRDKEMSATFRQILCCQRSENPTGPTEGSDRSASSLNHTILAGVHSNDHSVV

Regarding `COc1cc([C@@H](O)[C@H](Cc2cc3c(C(=O)O)cccc3s2)OC2CCCC2)cc(OC)c1C` [Compound 265, 2-((2S,3R)-2-(cyclopentyloxy)-3-(3,5-dimethoxy-4-methylphenyl)-3-hydroxypropyl)benzo[b]thiophene-4-carboxylic acid], the half-maximal inhibitory concentration (IC50) worked out at 22.7 nM.
The result for `COc1cc([C@@H](O)[C@H](Cn2cc3cc(F)cc(C(=O)O)c3n2)OC2CCCC2)cc(OC)c1C` [Compound 154] reads 8.64 nM; that for `COc1cc(C(=O)O)c2nn(C[C@H](OC3CCCC3)[C@H](O)c3cc(OC)c(C)c(OC)c3)cc2c1` [Compound 164], 11.9 nM; that for `COc1cc([C@@H](O)[C@H](Cn2cc3cncc(C(=O)O)c3n2)OC2CCCC2)cc(OC)c1C` [Compound 159], 49.6 nM.
The figure for `COc1cc([C@@H](O)[C@H](Cc2cc3cccc(C(=O)O)n3n2)OC2CCCC2)cc(OC)c1C` [Compound 169, 2-((2S,3R)-2-(cyclopentyloxy)-3-(3,5-dimethoxy-4-methylphenyl)-3-hydroxypropyl)pyrazolo[1,5-a]pyridine-7-carboxylic acid] is 150 nM; for `CCOc1cc([C@@H](O)[C@H](Cn2cc3nccc(C(=O)O)c3n2)OC2CCCC2)cc(OCC)c1C(C)=O` [Compound 204] it is 122 nM; for `COc1cc([C@@H](O)[C@H](Cc2cc3cccc(C(=O)O)n3n2)OC2Cc3ccccc3C2)cc(OC)c1C` [Compound 264] it is 5.33 nM.
As for `COc1cc([C@@H](O)[C@H](Cc2nc3c(C(=O)O)cc(C(F)(F)F)cc3s2)OC2CCCC2)cc(OC)c1C` [Compound 244], the half-inhibitory concentration (IC50) amounted to 3.34 nM.
The figure for `COc1cc([C@@H](O)[C@H](Cc2nc3c(C(=O)O)cc(Cl)cc3s2)OC2CCCC2)cc(OC)c1C` [Compound 246] is 1.65 nM; for `COc1cc([C@@H](O)[C@H](Cn2cc3nccc(C(=O)O)c3n2)OC2CCCC2)c(C)cc1C` [Compound 188] it is 447 nM; for `COC(=O)c1sc(C[C@H](OC2CCCC2)[C@H](O)c2cc(OC)c(C)c(OC)c2)nc1CC(=O)O` [Compound 152] it is 8.53 nM.
With `COc1cc([C@@H](O)[C@H](Cc2nc3c(C(=O)O)cc(F)cc3s2)OC2CCCC2)cc(OC)c1C` [Compound 266], the IC50 stood at 7.18 nM.
The figure for `COc1cc([C@@H](O)[C@H](Cn2cc3nc(C(N)=O)cc(C(=O)O)c3n2)OC2CCCC2)cc(OC)c1C` [Compound 222] is 43.4 nM; for `CCc1cc(C(=O)O)c2nc(C[C@H](OC3CCCC3)[C@H](O)c3cc(OC)c(C)c(OC)c3)cn2c1` [Compound 230] it is 872 nM; for `COc1cc([C@@H](O)[C@H](Cc2nc(CC(=O)O)c(C)s2)OC2CCCC2)cc(OC)c1C` [Compound 177, 2-(2-((2S,3R)-2-(cyclopentyloxy)-3-(3,5-dimethoxy-4-methylphenyl)-3-hydroxypropyl)-5-methylthiazol-4-yl)acetic acid] it is 154 nM.
The result for `COc1cc([C@@H](O)C(Cc2nc(CC(=O)O)c(C(=O)O)s2)OC2CCCC2)cc(OC)c1C` (some centres unmarked) [Compound 206] reads 2120 nM; that for `COc1cc([C@@H](O)[C@H](Cc2cn3cc(C)cc(C(=O)O)c3n2)OC2CCCC2)cc(OC)c1C` [Compound 217], 1300 nM; that for `COc1cc([C@@H](O)[C@H](Cc2nc([C@H](C)C(=O)O)c(C)s2)OC2CCCC2)cc(OC)c1C` (single isomer, unassigned) [Compound 239], 37.4 nM.
Take `COc1cc([C@@H](O)[C@H](Cc2nc([C@@H](C)C(=O)O)c(C)s2)OC2CCCC2)cc(OC)c1C` (single isomer, unassigned) [Compound 240]: the half-maximal inhibitory concentration (IC50) came out at 885 nM.
The result for `COc1cc([C@@H](O)[C@H](Cn2cc3nccc(C(=O)O)c3n2)OC2CCCC2)cc(OC)c1Br` [Compound 224] reads 327 nM; that for `CCCc1sc(C[C@H](OC2CCCC2)[C@H](O)c2cc(OC)c(C)c(OC)c2)nc1[C@@H](C)C(=O)O` [Compound 261], 366 nM.
The result for `CCc1cc(C(=O)O)c2nc(C[C@H](OCC(C)C)[C@H](O)c3cc(OC)c(C)c(OC)c3)sc2c1` [Compound 254] reads 8.93 nM.
For the molecule `COc1cc([C@@H](O)[C@H](Cn2cc3cc(C)nc(C(=O)O)c3n2)OC2CCCC2)cc(OC)c1C` [Compound 195], the IC50 is 32.3 nM.
Regarding `COc1cc([C@@H](O)[C@H](Cc2nc3c(C(=O)O)cccn3n2)OC2CCCC2)cc(OC)c1C` [Compound 168], the IC50 is above 10000 nM.
The result for `COc1cc([C@@H](O)[C@H](Cn2cc3cccc(C(=O)NS(C)(=O)=O)c3n2)OC2CCCC2)cc(OC)c1C` [Compound 171] reads at least 10000 nM.
The figure for `COc1cc([C@@H](O)[C@H](Cc2nc3c(C(=O)O)cncc3s2)OC2CCCC2)cc(OC)c1C` [Compound 176] is 9.95 nM.
In the case of `COc1cc([C@@H](O)[C@H](Cc2cc3cc(C)cc(C(=O)O)n3n2)OCC(C)C)cc(OC)c1C` [Compound 252], the half-maximal inhibitory concentration (IC50) is 24.5 nM.
Take `Cc1ccc([C@@H](O)[C@H](Cn2cc3cccc(C(=O)O)c3n2)OC2CCCC2)cc1O` [Compound 151]: the half-inhibitory concentration (IC50) was at least 10000 nM.
`CCOc1cc([C@@H](O)[C@H](Cc2nc3c(C(=O)O)cccc3s2)OC2CCCC2)cc(OCC)c1C#N` [Compound 257, 2-((2S,3R)-3-(4-cyano-3,5-diethoxyphenyl)-2-(cyclopentyloxy)-3-hydroxypropyl) benzo [d]thiazole-4-carboxylic acid]: the IC50 stood at 47.2 nM.
For the molecule `COc1cc([C@@H](O)[C@H](Cn2cc3c(OC)ccc(C(=O)O)c3n2)OC2CCCC2)cc(OC)c1C` [Compound 216], the IC50 was 9.61 nM.
The result for `COc1cc([C@@H](O)[C@H](Cc2nc3c(C(=O)O)cc(C)cc3s2)OCC(C)C)cc(OC)c1C` [Compound 234, 2-((2S,3R)-3-(3,5-dimethoxy-4-methylphenyl)-3-hydroxy-2-isobutoxypropyl)-6-methylbenzo[d]thiazole-4-carboxylic acid] reads 3.71 nM; that for `COc1cc([C@@H](O)[C@H](Cc2nc3c(C(=O)O)cc(C(F)(F)F)cc3s2)OCC(C)C)cc(OC)c1C` [Compound 253], 5.79 nM.
The figure for `Cc1ccc([C@@H](O)[C@H](Cn2cc3cc(C#N)cc(C(=O)O)c3n2)OC2CCCC2)cc1OC(F)(F)F` [Compound 228] is 62.2 nM; for `COc1cc([C@@H](O)[C@H](Cn2cc3nccc(C(=O)O)c3n2)OCCCc2ccccc2)cc(OC)c1C` [Compound 214] it is above 10000 nM.
The result for `COc1cc([C@@H](O)C(Cc2nc(C3(C(=O)O)CC3)c(C)s2)OC2CCCC2)cc(OC)c1C` (some centres unmarked) [Compound 207] reads 723 nM; that for `COc1cc(C(=O)O)n2nc(C[C@H](OC3CCCC3)[C@H](O)c3cc(OC)c(C)c(OC)c3)cc2c1` [Compound 235], 40.8 nM; that for `CCCc1sc(C[C@H](OC2CCCC2)[C@H](O)c2cc(OC)c(C)c(OC)c2)nc1CC(=O)O` [Compound 179], 20.3 nM.
In the case of `COc1c(C)ccc([C@@H](O)[C@H](Cn2cc3nccc(C(=O)O)c3n2)OC2CCCC2)c1F` [Compound 193], the IC50 is 757 nM.
The result for `CCc1cc(C(=O)O)c2nc(C[C@H](OC3CCCC3)[C@H](O)c3cc(OC)c(C)c(OC)c3)sc2c1` [Compound 255] reads 5.75 nM; that for `COc1cc([C@@H](O)[C@H](Cn2cc3cc(C#N)cc(C(=O)O)c3n2)OC2CCCC2)ccc1C1CC1` [Compound 227], 149 nM.
For `COc1cc([C@@H](O)[C@H](Cc2cc3c(OC)ccc(C(=O)O)n3n2)OC2CCCC2)cc(OC)c1C` [Compound 237, 2-((2S,3R)-2-(cyclopentyloxy)-3-(3,5-dimethoxy-4-methylphenyl)-3-hydroxypropyl)-4-methoxypyrazolo[1,5-a]pyridine-7-carboxylic acid], the IC50 worked out at 10.3 nM.
The result for `COc1cc([C@@H](O)[C@H](Cn2cc3ccc(C#N)c(C(=O)O)c3n2)OC2CCCC2)cc(OC)c1C` [Compound 180] reads 153 nM; that for `COc1cc([C@@H](O)[C@H](Cn2cc3nccc(C(=O)O)c3n2)OC2CCCC2)c(C)c(OC)c1C` [Compound 199], 667 nM; that for `COc1cc([C@@H](O)[C@H](Cc2cc3c(OC)ccc(C(=O)O)n3n2)OC2Cc3ccccc3C2)cc(OC)c1C` [Compound 276], 5 nM.
As for `COc1cc([C@@H](O)[C@H](Cc2nc3c(C(=O)O)cc(C4CC4)cc3s2)OCC(C)C)cc(OC)c1C` [Compound 271], the IC50 worked out at 2.19 nM.
The figure for `COc1cc(C(=O)O)c2nn(C[C@H](OC3CCCC3)[C@H](O)c3cc(OC)c(C)c(OC)c3)cc2n1` [Compound 197] is 23.8 nM; for `COc1cc([C@@H](O)[C@H](Cc2cc3cc(C)cc(C(=O)O)n3n2)OC2CCCC2)cc(OC)c1C` [Compound 218] it is 13 nM; for `COc1cc([C@@H](O)[C@H](Cc2nc(CC(=O)O)c(C(C)C)s2)OC2CCCC2)cc(OC)c1C` [Compound 223] it is 99.4 nM.
The result for `COc1cc([C@@H](O)[C@H](Cn2cc3cc(CNC(C)=O)cc(C(=O)O)c3n2)OC2CCCC2)cc(OC)c1C` [Compound 220] reads 106 nM.
Take `CCc1cc(C(=O)O)c2nn(C[C@H](OC3CCCC3)[C@H](O)c3cc(OC)c(C)c(OC)c3)cc2c1` [Compound 172]: the IC50 came out at 4.01 nM.
